Key:
Assay type in all cases: in vivo
[1] = test system: fall armyworm (Spodoptera frugiperda); assay: Test B: control of fall armyworm on corn (maize) plant, foliar spray; settings: sprayed at 50 ppm
Protocol: (§1) Test compounds were formulated using a solution containing 10% acetone, 90% water and 300 ppm X-77™ Spreader Lo-Foam Formula non-ionic surfactant containing alkylarylpolyoxyethylene, free fatty acids, glycols and isopropanol (Loveland Industries, Inc. Greeley, Colo., USA). The formulated compounds were applied in 1 mL of liquid through a SUJ2 atomizer nozzle with ⅛ JJ custom body (Spraying Systems Co. Wheaton, Ill., USA) positioned 1.27 cm (0.5 inches) above the top of each test unit. All experimental compounds in these tests were sprayed at 50 ppm, and the test was replicated three times. After spraying of the formulated test compound, each test unit was allowed to dry for 1 h and then a black, screened cap was placed on top. The test units were held for 6 days in a growth chamber at 25° C. and 70% relative humidity. Plant feeding damage was then visually assessed based on foliage consumed, and a pest mortality rating was also counted and calculated for each test unit.
For evaluating control of fall armyworm (Spodoptera frugiperda) the test unit consisted of a small open container with a 4-5-day-old corn (maize) plant inside. This was pre-infested (using a core sampler) with 10-15 1-day-old larvae on a piece of insect diet. Test compounds were formulated and sprayed at 50 ppm as described for Test A and replicated three times. After spraying, the test units were maintained in a growth chamber and then the control efficacy was rated for each test unit as described for Test A.

[2] = test system: diamondback moth (Plutella xylostella); assay: Test A: control of diamondback moth on radish plant, foliar spray; settings: sprayed at 50 ppm, held 6 days
Description: For evaluating control of diamondback moth (Plutella xylostella) the test unit consisted of a small open container with a 12-14-day-old radish plant inside. This was pre-infested with about 50 neonate larvae that were dispensed into the test unit via corncob grits using a bazooka inoculator. The larvae moved onto the test plant after being dispensed into the test unit.
as §1

[3] = test system: western flower thrips (Frankliniella occidentalis); assay: Test E: control of western flower thrips on Soleil bean plant, contact and/or systemic; settings: held 6 days
Protocol: as §1
For evaluating control of the western flower thrips (Frankliniella occidentalis) through contact and/or systemic means, the test unit consisted of a small open container with a 5-7-day-old Soleil Bean plant inside. Test compounds were formulated and sprayed as described for Test A. All experimental compounds in these tests were sprayed at 250 or 50 ppm as noted, and the test was replicated three times. After spraying, the test units were allowed to dry for 1 h, 22-27 adult thrips were added to each unit and then a black, screened cap was placed on top. The test units were held for 6 days at 25° C. and 45-55% relative humidity. A mortality rating was assessed along with a plant damage rating for each test unit.

Structure (SMILES)	levels of control efficacy (20% or less feeding damage or 80% or more mortality) [1]	levels of control efficacy (20% or less feeding damage or 80% or more mortality) [2]	levels of control efficacy (20% or less feeding damage or 80% or more mortality) ([3]; sprayed at 50 ppm)	levels of control efficacy (20% or less feeding damage or 80% or more mortality) ([3]; sprayed at 250 ppm)
O=C(CNC(=O)c1ccc(C2=NOC(c3cc(Cl)cc(C(F)(F)F)c3)(C(F)(F)F)C2)c2ccccc12)NCC(F)(F)F (stereo not shown) [Compound 62]	very good to excellent	very good to excellent	very good to excellent	very good to excellent
CC(C)(C)NC(=O)CNC(=O)c1ccc(C2=NOC(c3cc(Cl)cc(Cl)c3)(C(F)(F)F)C2)c2ccccc12 (stereo not shown) [Compound 24]	very good to excellent	very good to excellent		very good to excellent
CNC(=O)CNC(=O)c1ccc(C2=NOC(c3cc(Cl)cc(C(F)(F)F)c3)(C(F)(F)F)C2)c2ccccc12 (stereo not shown) [Compound 116]	very good to excellent	very good to excellent		
CCC(CO)NC(=O)c1ccc(C2=NOC(c3cccc(C(F)(F)F)c3)(C(F)(F)F)C2)c2ccccc12 (mixture of isomers) [Compound 46]	very good to excellent	very good to excellent		
O=C(CNC(=O)c1ccc(C2=NOC(c3cc(Cl)cc(Cl)c3)(C(F)(F)F)C2)c2ccccc12)NCC(F)(F)C(F)(F)C(F)(F)F (stereo not shown) [Compound 13]	very good to excellent	very good to excellent		
CC(C)SCCCNC(=O)c1ccc(C2=NOC(c3cccc(C(F)(F)F)c3)(C(F)(F)F)C2)c2ccccc12 (racemic) [Compound 56]	very good to excellent	very good to excellent		
O=C(NCO)c1ccc(C2=NOC(c3cc(Cl)cc(Cl)c3)(C(F)(F)F)C2)c2ccccc12 (stereo not shown) [Compound 82]	very good to excellent	very good to excellent		
O=C(CNC(=O)c1ccc(C2=NOC(c3cccc(OC(F)(F)F)c3)(C(F)(F)F)C2)c2ccccc12)NCC(F)(F)F (stereo not shown) [Compound 72]	very good to excellent	very good to excellent		
CCCNC(=O)C(C)NC(=O)c1ccc(C2=NOC(c3cc(C(F)(F)F)cc(C(F)(F)F)c3)(C(F)(F)F)C2)c2ccccc12 (stereo not shown) [Compound 89]	very good to excellent			
O=C(NCCO)c1ccc(C2=NOC(c3cc(C(F)(F)F)cc(C(F)(F)F)c3)(C(F)(F)F)C2)c2ccccc12 (stereo not shown) [Compound 69]	very good to excellent	very good to excellent		
CC(C)CNC(=O)C(C)NC(=O)c1ccc(C2=NOC(c3cc(Cl)cc(C(F)(F)F)c3)(C(F)(F)F)C2)c2ccccc12 (mixture of isomers) [Compound 130]	very good to excellent			
CCNC(=O)C(C)NC(=O)c1ccc(C2=NOC(c3cc(Cl)cc(C(F)(F)F)c3)(C(F)(F)F)C2)c2ccccc12 (mixture of isomers) [Compound 126]	very good to excellent			
C[S+]([O-])CCNC(=O)c1ccc(C2=NOC(c3cc(Cl)cc(C(F)(F)F)c3)(C(F)(F)F)C2)c2ccccc12 (stereo not shown) [Compound 114]	very good to excellent	very good to excellent		
CSCCNC(=O)c1ccc(C2=NOC(c3cccc(OC(F)(F)F)c3)(C(F)(F)F)C2)c2ccccc12 (stereo not shown) [Compound 71]	very good to excellent	very good to excellent		
CC(NC(=O)c1ccc(C2=NOC(c3cc(Cl)cc(C(F)(F)F)c3)(C(F)(F)F)C2)c2ccccc12)C(=O)NCC(F)(F)F (mixture of isomers) [Compound 127]	very good to excellent			
CC(NC(=O)CNC(=O)c1ccc(C2=NOC(c3cc(C(F)(F)F)cc(C(F)(F)F)c3)(C(F)(F)F)C2)c2ccccc12)C(F)(F)F (stereo not shown) [Compound 91]	very good to excellent		very good to excellent	
O=C(CNC(=O)c1ccc(C2=NOC(c3cc(Cl)cc(Cl)c3)(C(F)(F)F)C2)c2ccccc12)NCC(F)(F)C(F)(F)F (stereo not shown) [Compound 14]	very good to excellent	very good to excellent		
CC(O)(CNC(=O)c1ccc(C2=NOC(c3cccc(C(F)(F)F)c3)(C(F)(F)F)C2)c2ccccc12)C(F)(F)F (mixture of isomers) [Compound 45]	very good to excellent	very good to excellent		
O=C(CNC(=O)c1ccc(C2=NOC(c3cc(Cl)cc(Cl)c3)(C(F)(F)F)C2)c2ccccc12)NCCCl (stereo not shown) [Compound 10]	very good to excellent	very good to excellent		
O=C(CNC(=O)c1ccc(C2=NOC(c3cccc(Br)c3)(C(F)(F)F)C2)c2ccccc12)NCC(F)(F)F (stereo not shown) [Compound 70]	very good to excellent	very good to excellent		
CC(C)SCCNC(=O)c1ccc(C2=NOC(c3cccc(C(F)(F)F)c3)(C(F)(F)F)C2)c2ccccc12 (racemic) [Compound 55]	very good to excellent	very good to excellent		
CC(C)NC(=O)C(C)NC(=O)c1ccc(C2=NOC(c3cc(Cl)cc(C(F)(F)F)c3)(C(F)(F)F)C2)c2ccccc12 (mixture of isomers) [Compound 128]	very good to excellent			
CNC(=O)C(C)NC(=O)c1ccc(C2=NOC(c3cc(Cl)cc(C(F)(F)F)c3)(C(F)(F)F)C2)c2ccccc12 (mixture of isomers) [Compound 125]	very good to excellent			
CCC(O)CNC(=O)c1ccc(C2=NOC(c3cccc(C(F)(F)F)c3)(C(F)(F)F)C2)c2ccccc12 (stereo not shown) [Compound 64]	very good to excellent	very good to excellent		
CC(NC(=O)CNC(=O)c1ccc(C2=NOC(c3cc(Cl)cc(C(F)(F)F)c3)(C(F)(F)F)C2)c2ccccc12)C(F)(F)F (stereo not shown) [Compound 113]	very good to excellent	very good to excellent		
CCCNC(=O)C(C)NC(=O)c1ccc(C2=NOC(c3cc(Cl)cc(C(F)(F)F)c3)(C(F)(F)F)C2)c2ccccc12 (mixture of isomers) [Compound 129]	very good to excellent			
CC(NC(=O)c1ccc(C2=NOC(c3cc(Cl)cc(C(F)(F)F)c3)(C(F)(F)F)C2)c2ccccc12)C(=O)NC(C)C(F)(F)F (stereo not shown) [Compound 115]	very good to excellent	very good to excellent		
CC(CO)NC(=O)c1ccc(C2=NOC(c3cc(C(F)(F)F)cc(C(F)(F)F)c3)(C(F)(F)F)C2)c2ccccc12 (stereo not shown) [Compound 68]	very good to excellent	very good to excellent		
